{
  "source": "patent US9429582B2",
  "about": "“Tyrosine-phosphorylated WBP2, a novel cancer target and biomarker” (National University of Singapore, priority 2010, dated 2016)",
  "assay_type_in_all_cases": "cell-based, human",
  "key": {"[1]": {"test_system": "YAP, ERα, cyclin D1, Wnt3a, pGSKβ, β-catenin, c-Myc, Bcl-2, c-Yes, p16, p21, MMP2", "experiment": "Immunoblot of Y192-231E mutant expressing MCF7 with WBP2 knockdown", "conditions": "WBP2 expression silenced in WBP2 Y192-231E stable transfectant", "protocol": "A: Whole cell lysates from vector, WBP2-WT, WBP2-Y192-231E mutant and WBP2-Y192-231F mutant expressing MCF7 or Y192-231E mutant expressing MCF7 with WBP2 knockdown were used for IB analysis with antibodies indicated. B: Vector, WBP2-WT, WBP2-Y192-231E mutant or WBP2-Y192-231F mutant-expressing MCF7 were co-transfected with TOPFlash (top panel) or ERE-Luciferase (bottom panel) reporter construct. For cells co-transfected ERE-luciferase, they were either left alone or stimulated with 50 ng/ml Wnt3a ligand for 16 hrs. TCF/ERα luciferase activities in various conditions were then assayed. **P<0.01, ***P<0.001, Student's t-test (2-tailed). […] Cell numbers were measured. […]\nWhole cell lysates from vector, WBP2-WT, WBP2-Y192-231E mutant and WBP2-Y192-231F mutant expressing MCF7 (A) or Y192-231E mutant expressing MCF7 with WBP2 knockdown (B) were used for IB analysis with antibodies indicated. Their expression levels were quantified in three independent experiments and the averages were presented relative to actin. […] TCF(C)/ER[…](D) luciferase activities in various conditions were then assayed and analyzed in relative to untreated vector control. **P<0.01, ***P<0.001, Student's t-test (2-tailed). […] Cell numbers were measured daily and compared in relative to vehicle treated vector-expressing cells on Day 0. […] Cell numbers were measured and compared in relative to vehicle-treated cells. […]"}, "[2]": {"test_system": "WBP2", "experiment": "EGF-induced WBP2 tyrosine phosphorylation in HeLa (IP/IB)", "conditions": "HeLa co-transfected with EGFR and WBP2; 50 ng/ml EGF 5 min; 1 hr pre-treatment with 1 μM AZD0530", "protocol": "(§1) A: HeLa were co-transfected with EGFR and V5-tagged WT or individual Y→F mutant of WBP2. 24 hr post-transfection, cells were serum-starved and stimulated with 50 ng/ml EGF for 5 min with/without 1 hr pre-treatment with 10 μM Iressa or 1 μM AZD0530. Whole cell lysates were used for IP/IB analysis with antibodies indicated. B: HeLa were co-transfected with EGFR and V5-tagged WT or individual Y→F mutant of WBP2 in the absence or presence of Src-DN overexpression. C: HeLa were co-transfected with (a) WBP2; (b) WBP2 and EGFR; (c) WBP2 and wild-type (WT) Src; (d) WBP2 and constitutively active (CA) Src; (e) WBP2, EGFR and WT-Src; (f) WBP2, EGFR ad CA-Src; (g) Y192-231F, EGFR and WT-Src. For experiments B and C, 24 hr post-transfection, cells were serum-starved overnight and stimulated with 50 ng/ml EGF for 5 min. Whole cell lysates were used for IP/IB analysis with antibodies indicated. D: HeLa were co-transfected with EGFR and V5-tagged WT or individual Y→F mutant of WBP2. 24 hrpost-transfection, cells were serum-starved and stimulated with 50 ng/ml EGF for 5 min with/without 1 hr pre-treatment with 10 μM Iressa or 1 μM AZD0530. Whole cell lysates were used for IP/IB analysis with antibodies indicated. E: HeLa were co-transfected with EGFR and V5-tagged WT or individual Y→F mutant of WBP2 in the absence or presence of Src-DN-K295M overexpression. F: HeLa were cotransfected with (a) WBP2; (b) WBP2 and EGFR; (c) WBP2 and wild-type (WT) Src; (d) WBP2 and constitutively-active (CA) Src-Y529F; (e) WBP2, EGFR and WT-Src; (f) WBP2, EGFR ad CA-Src; (g) Y192-231F, EGFR and WT-Src. For experiments B and C, 24 hr post-transfection, cells were serum-starved overnight and stimulated with 50 ng/ml EGF for 5 min. Whole cell lysates were used for IP/IB analysis with antibodies indicated. G: MCF7 were co-transfected with V5-tagged WBP2 and either negative control siRNA, c-Yes siRNA or c-Src siRNA. For both experiments, 24 hr post-transfection, cells were serum-starved overnight and stimulated with 50 ng/ml EGF for 5 min. Whole cell lysates were used for IP/IB analysis with antibodies indicated. […]"}, "[3]": {"test_system": "EGFR", "experiment": "EGFR activation (auto-phosphorylation) in EGF-stimulated HeLa (IB)", "conditions": "50 ng/ml EGF 5 min, c-Src inhibition, 1 μM AZD0530", "protocol": "as §1, with “overexpression.” for “overexpression. F: HeLa were cotransfected with (a) WBP2; (b) WBP2 and EGFR; (c) WBP2 and wild-type (WT) Src; (d) WBP2 and constitutively-active (CA) Src-Y529F; (e) WBP2, EGFR and WT-Src; (f) WBP2, EGFR ad CA-Src; (g) Y192-231F, EGFR and WT-Src. For experiments B and C, 24 hr post-transfection, cells were serum-starved overnight and stimulated with 50 ng/ml EGF for 5 min. Whole cell lysates were used for IP/IB analysis with antibodies indicated. G: MCF7 were co-transfected with V5-tagged WBP2 and either negative control siRNA, c-Yes siRNA or c-Src siRNA. For both experiments, 24 hr post-transfection, cells were serum-starved overnight and stimulated with 50 ng/ml EGF for 5 min. Whole cell lysates were used for IP/IB analysis with antibodies indicated.”"}},
  "data": [
    {"compound": "5′-AGCAUCCGCUGUCCGAACUCAAUGG-3′ ((5'-AGCAUCCGCUGUCCGAACUCAAUGG-3'; as printed in the source, key not given here) [WBP2 siRNA, small interfering RNA designed to suppress the expression of WBP2]", "values": [
      {"measurement": "expression of c-Yes, p16, p21 and active MMP2", "setting": "[1]", "result": "remained unchanged"},
      {"measurement": "expressions of YAP, ERα, cyclin D1, Wnt3a, pGSKβ, β-catenin, c-Myc", "setting": "[1]", "result": "suppressed"}
    ]},
    {"compound": "CN1CCN(CCOc2cc(OC3CCOCC3)c3c(Nc4c(Cl)ccc5c4OCO5)ncnc3c2)CC1", "note": "[AZD0530]", "values": [
      {"measurement": "EGF-induced tyrosine phosphorylation of WBP2", "setting": "[2]", "result": "abolished"},
      {"measurement": "EGFR activation (EGFR auto-phosphorylation)", "setting": "[3]", "result": "significant reduction"}
    ]}
  ]
}
